Results taken from patent publication US6737383B1, “Herbicidal oxadiazolidines” (priority 1999, dated 2004).

Columns and labels:
sugar beet = experiment: Test B pre/postemergence sugar beet; assay type: in vivo, Beta vulgaris
Method in brief: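 Response is a visual 0-to-10 score relative to untreated plants, where 0 means no effect and 10 means complete control, taken twelve to sixteen days after application. Treatments went onto soil at planting and onto foliage of 1- to 4-leaf plants, using a surfactant-containing non-phytotoxic solvent.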

rice = experiment: Test B flood test rice; assay type: in vivo, Oryza sativa
Method in brief: (§1)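 Each value is a visual injury score relative to controls, with 10 meaning complete control and 0 no effect. Evaluation took place twelve to sixteen days after the 2-leaf-stage plants were treated and kept in the greenhouse.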

smallflower flatsedge = experiment: Test B flood test smallflower flatsedge; assay type: in vivo, Cyperus difformis
Method in brief: as §1

duck salad = experiment: Test B flood test duck salad; assay type: in vivo, Heteranthera limosa
Method in brief: as §1

bamyardgrass = experiment: Test B flood test barnyardgrass; assay type: in vivo, Echinochloa crus-galli
Method in brief: as §1

[1] = Postemergence, Rate 62 g/ha, scale 0 to 10, 0 is no effect, 10 is complete control
[2] = Rate 62 g/ha, flood test species, Pre-emergence, visual evaluation after twelve to sixteen days
[3] = Rate 125 g/ha, under heading Pre-emergence, flood test species, visual evaluation after twelve to sixteen days
[4] = Rate 250 g/ha, Pre-emergence (flood test species), scale 0 to 10, 0 is no effect, 10 is complete control
[5] = Rate 500 g/ha, Pre-emergence section of Table B, 0 to 10 scale (0 no effect, 10 complete control)
[6] = Postemergence, Rate 250 g/ha, scale 0 to 10, 0 no effect, 10 complete control
[7] = Preemergence, Rate 62 g/ha, scale 0 to 10, 0 is no effect, 10 is complete control
[8] = Preemergence, Rate 125 g/ha, scale 0 to 10 (0 no effect, 10 complete control)
[9] = Preemergence, Rate 250 g/ha, scale of 0 to 10 where 0 is no effect and 10 is complete control
[10] = Preemergence, Rate 500 g/ha, scale 0 (no effect) to 10 (complete control)
[11] = Rate 125 g/ha, Postemergence, scale 0 to 10, 0 no effect, 10 complete control
[12] = Rate 125 g/ha, Postemergence section (flood test species), scale 0 to 10, 0 no effect, 10 complete control
[13] = Rate 500 g/ha, Postemergence section of Table B, 0 to 10 scale (0 no effect, 10 complete control)
[14] = flood test, listed under Postemergence, Rate 250 g/ha, scale 0 to 10, 0 no effect, 10 complete control
[15] = Rate 500 g/ha, Postemergence, scale 0 to 10, 0 no effect, 10 complete control
[16] = Rate 125 g/ha, Pre-emergence, flood test species, scale 0 to 10 where 0 is no effect and 10 is complete control
[17] = Rate 250 g/ha, headed Pre-emergence (flood test species), scale 0 to 10 (0 no effect, 10 complete control)
[18] = Rate 500 g/ha, headed Pre-emergence (flood test species), scale 0 to 10 (0 no effect, 10 complete control)
[19] = Rate 1000 g/ha, Pre-emergence (as headed), scale 0 to 10
[20] = Rate 2000 g/ha, Pre-emergence (as headed), scale 0 to 10
[21] = Rate 500 g/ha, listed under Postemergence (flood test species), scale 0 to 10, 0 no effect, 10 complete control

Structure (SMILES): C#CC(C)n1c(=O)on(C(=O)N(c2ccc(Cl)cc2)C(C)C)c1=O (racemic) [Compound 658]
- Plant response rating, Sugarbeets (sugar beet; [1]): 0
- Sugarbeets plant response rating (sugar beet; Postemergence, Rate 125 g/ha, scale of 0 to 10 where 0 is no effect and 10 is complete control): 0
- Sugarbeets plant response rating (sugar beet; Preemergence, Rate 62 g/ha, scale of 0 to 10 where 0 is no effect and 10 is complete control): 3
- Sugarbeets plant response rating (sugar beet; Preemergence, Rate 125 g/ha, scale of 0 to 10 where 0 is no effect and 10 is complete control): 7
- Plant response rating, Sugarbeets (sugar beet; Preemergence, Rate 250 g/ha, scale 0 to 10 (0 no effect, 10 complete control)): 6
- Plant response rating, Sugarbeets (sugar beet; Preemergence, Rate 500 g/ha, scale of 0 to 10 where 0 is no effect and 10 is complete control): 7
- Sugarbeets plant response rating (sugar beet; Rate 500 g/ha, Postemergence, scale 0 to 10, 0 is no effect, 10 is complete control): 2
- Plant response rating, Rice (0 to 10 scale, 0 is no effect, 10 is complete control) (rice; [2]): 0
- Rice plant response rating (0 to 10 scale, 0 is no effect, 10 is complete control) (rice; [3]): 0
- Rice plant response rating (rice; [4]): 0
- Rice plant response rating (rice; [5]): 0
- Plant response rating, S. Flatsedge (0 to 10 scale, 0 is no effect, 10 is complete control) (smallflower flatsedge; [2]): 0
- S. Flatsedge plant response rating (0 to 10 scale, 0 is no effect, 10 is complete control) (smallflower flatsedge; [3]): 0
- S. Flatsedge plant response rating (smallflower flatsedge; [4]): 0
- S. Flatsedge plant response rating (smallflower flatsedge; [5]): 0
- Plant response rating, Ducksalad (0 to 10 scale, 0 is no effect, 10 is complete control) (duck salad; [2]): 0
- Ducksalad plant response rating (0 to 10 scale, 0 is no effect, 10 is complete control) (duck salad; [3]): 0
- Ducksalad plant response rating (duck salad; [4]): 0
- Ducksalad plant response rating (duck salad; [5]): 0
- Plant response rating, Barnyardgrass (0 to 10 scale, 0 is no effect, 10 is complete control) (bamyardgrass; [2]): 0
- Barnyardgrass plant response rating (0 to 10 scale, 0 is no effect, 10 is complete control) (bamyardgrass; [3]): 0
- Barnyardgrass plant response rating (bamyardgrass; [4]): 0
- Barnyardgrass plant response rating (bamyardgrass; [5]): 0

Structure (SMILES): Cc1c(Cl)cccc1-n1c(=O)on(C(=O)N(c2ccc(F)cc2)C(C)C)c1=O [Compound 21]
- Sugarbeets plant response rating (sugar beet; [1]): 0
- Sugarbeets plant response rating (sugar beet; [6]): 0
- Plant response rating, Sugarbeets (sugar beet; [7]): 0
- Plant response rating, Sugarbeets (sugar beet; [8]): 0
- Plant response rating, Sugarbeets (sugar beet; [9]): 3
- Sugarbeets plant response rating (sugar beet; [10]): 8
- Sugarbeets plant response rating (sugar beet; [11]): 0
- Rice plant response rating (rice; [1]): 0
- Rice plant response rating (rice; [12]): 0
- Rice plant response rating (rice; [13]): 0
- Rice plant response rating (rice; [14]): 0
- S. Flatsedge plant response rating (smallflower flatsedge; [1]): 0
- S. Flatsedge plant response rating (smallflower flatsedge; [12]): 0
- S. Flatsedge plant response rating (smallflower flatsedge; [14]): 0
- Ducksalad plant response rating (duck salad; [1]): 0
- Ducksalad plant response rating (duck salad; [12]): 0
- Ducksalad plant response rating (duck salad; [13]): 0
- Ducksalad plant response rating (duck salad; [14]): 0
- Barnyardgrass plant response rating (bamyardgrass; [1]): 0
- Barnyardgrass plant response rating (bamyardgrass; [12]): 0
- Barnyardgrass plant response rating (bamyardgrass; [13]): 0
- Barnyardgrass plant response rating (bamyardgrass; [14]): 0

Structure (SMILES): CCN(C(=O)n1oc(=O)n(-c2c(C)cccc2C)c1=O)C1CCCCC1 [Compound 27]
- Sugarbeets plant response rating (sugar beet; [1]): 0
- Sugarbeets plant response rating (sugar beet; [6]): 0
- Sugarbeets plant response rating (sugar beet; Preemergence, Rate 31 g/ha, visual rating, scale 0 to 10 (0 no effect, 10 complete control)): 0
- Plant response rating, Sugarbeets (sugar beet; [7]): 0
- Plant response rating, Sugarbeets (sugar beet; [8]): 0
- Plant response rating, Sugarbeets (sugar beet; [9]): 0
- Sugarbeets plant response rating (sugar beet; [11]): 0
- Rice plant response rating (rice; [1]): 0
- Rice plant response rating (rice; [12]): 0
- Rice plant response rating (rice; [13]): 2
- Rice plant response rating (rice; [14]): 0
- S. Flatsedge plant response rating (smallflower flatsedge; [1]): 0
- S. Flatsedge plant response rating (smallflower flatsedge; [12]): 0
- S. Flatsedge plant response rating (smallflower flatsedge; [14]): 0
- Ducksalad plant response rating (duck salad; [1]): 0
- Ducksalad plant response rating (duck salad; [12]): 0
- Ducksalad plant response rating (duck salad; [13]): 0
- Ducksalad plant response rating (duck salad; [14]): 0
- Barnyardgrass plant response rating (bamyardgrass; [1]): 0
- Barnyardgrass plant response rating (bamyardgrass; [12]): 0
- Barnyardgrass plant response rating (bamyardgrass; [13]): 9
- Barnyardgrass plant response rating (bamyardgrass; [14]): 8

Structure (SMILES): Cc1ccccc1-n1c(=O)on(C(=O)N(c2ccc([N+](=O)[O-])cc2)C(C)C)c1=O [Compound 44]
- Sugarbeets plant response rating (sugar beet; [1]): 0
- Sugarbeets plant response rating (sugar beet; [6]): 0
- Plant response rating, Sugarbeets (sugar beet; [7]): 0
- Plant response rating, Sugarbeets (sugar beet; [8]): 0
- Plant response rating, Sugarbeets (sugar beet; [9]): 0
- Sugarbeets plant response rating (sugar beet; [10]): 0
- Sugarbeets plant response rating (sugar beet; [11]): 0
- Rice plant response rating (rice; [1]): 0
- Rice plant response rating (rice; [12]): 0
- Rice plant response rating (rice; [13]): 0
- Rice plant response rating (rice; [14]): 0
- S. Flatsedge plant response rating (smallflower flatsedge; [1]): 0
- S. Flatsedge plant response rating (smallflower flatsedge; [12]): 0
- S. Flatsedge plant response rating (smallflower flatsedge; [14]): 0
- Ducksalad plant response rating (duck salad; [1]): 0
- Ducksalad plant response rating (duck salad; [12]): 0
- Ducksalad plant response rating (duck salad; [13]): 0
- Ducksalad plant response rating (duck salad; [14]): 0
- Barnyardgrass plant response rating (bamyardgrass; [1]): 0
- Barnyardgrass plant response rating (bamyardgrass; [12]): 0
- Barnyardgrass plant response rating (bamyardgrass; [13]): 0
- Barnyardgrass plant response rating (bamyardgrass; [14]): 0

Structure (SMILES): Cc1cccc(C)c1-n1c(=O)on(C(=O)N(c2ccc(Cl)cc2)C(C)C)c1=O [Compound 47]
- Sugarbeets plant response rating (sugar beet; [1]): 0
- Sugarbeets plant response rating (sugar beet; [6]): 0
- Plant response rating, Sugarbeets (sugar beet; [7]): 0
- Plant response rating, Sugarbeets (sugar beet; [8]): 0
- Plant response rating, Sugarbeets (sugar beet; [9]): 0
- Sugarbeets plant response rating (sugar beet; [10]): 0
- Sugarbeets plant response rating (sugar beet; [11]): 0
- Sugarbeets plant response rating (sugar beet; [15]): 0
- Rice plant response rating (rice; [16]): 0
- Rice plant response rating (rice; [17]): 0
- Plant response rating, Rice (rice; [18]): 0
- Rice plant response rating (rice; [19]): 0
- Rice plant response rating (rice; [20]): 0
- S. Flatsedge plant response rating (smallflower flatsedge; Pre-emergence, Rate 1000 g/ha, scale 0 to 10 (0 no effect, 10 complete control)): 2
- S. Flatsedge plant response rating (smallflower flatsedge; [16]): 0
- S. Flatsedge plant response rating (smallflower flatsedge; [17]): 2
- Plant response rating, S. Flatsedge (smallflower flatsedge; [18]): 2
- S. Flatsedge plant response rating (smallflower flatsedge; [20]): 0
- Ducksalad plant response rating (duck salad; [12]): 0
- Ducksalad plant response rating (duck salad; [16]): 0
- Ducksalad plant response rating (duck salad; [17]): 0
- Plant response rating, Ducksalad (duck salad; [18]): 0
- Ducksalad plant response rating (duck salad; [19]): 3
- Ducksalad plant response rating (duck salad; [20]): 0
- Barnyardgrass plant response rating (bamyardgrass; [16]): 0
- Barnyardgrass plant response rating (bamyardgrass; [17]): 0
- Plant response rating, Barnyardgrass (bamyardgrass; [18]): 1
- Barnyardgrass plant response rating (bamyardgrass; [19]): 6
- Barnyardgrass plant response rating (bamyardgrass; Rate 2000 g/ha, Pre-emergence (as headed), scale 0 to 10, 0 no effect, 10 complete control): 8

Structure (SMILES): CCc1cccc(C)c1-n1c(=O)on(C(=O)N(c2ccc(F)cc2)C(C)C)c1=O [Compound 52]
- Sugarbeets plant response rating (sugar beet; [1]): 0
- Sugarbeets plant response rating (sugar beet; [6]): 0
- Plant response rating, Sugarbeets (sugar beet; [7]): 0
- Plant response rating, Sugarbeets (sugar beet; [8]): 0
- Plant response rating, Sugarbeets (sugar beet; [9]): 0
- Sugarbeets plant response rating (sugar beet; [10]): 0
- Sugarbeets plant response rating (sugar beet; [11]): 0
- Sugarbeets plant response rating (sugar beet; [15]): 0
- Rice plant response rating (rice; [1]): 0
- Rice plant response rating (rice; [12]): 0
- Rice plant response rating (rice; [21]): 0
- Rice plant response rating (rice; [14]): 0
- S. Flatsedge plant response rating (smallflower flatsedge; [1]): 0
- S. Flatsedge plant response rating (smallflower flatsedge; [12]): 0
- S. Flatsedge plant response rating (smallflower flatsedge; [21]): 0
- S. Flatsedge plant response rating (smallflower flatsedge; [14]): 0
- Ducksalad plant response rating (duck salad; [1]): 0
- Ducksalad plant response rating (duck salad; [12]): 0
- Ducksalad plant response rating (duck salad; [21]): 0
- Ducksalad plant response rating (duck salad; [14]): 0
- Barnyardgrass plant response rating (bamyardgrass; [1]): 0
- Barnyardgrass plant response rating (bamyardgrass; [12]): 0
- Barnyardgrass plant response rating (bamyardgrass; [21]): 0
- Barnyardgrass plant response rating (bamyardgrass; [14]): 0

Structure (SMILES): Cc1cccc(Cl)c1-n1c(=O)on(C(=O)N(c2ccc(F)cc2)C(C)C)c1=O [Compound 53]
- Sugarbeets plant response rating (sugar beet; [1]): 0
- Sugarbeets plant response rating (sugar beet; [6]): 1
- Plant response rating, Sugarbeets (sugar beet; [7]): 0
- Plant response rating, Sugarbeets (sugar beet; [8]): 0
- Plant response rating, Sugarbeets (sugar beet; [9]): 0
- Sugarbeets plant response rating (sugar beet; [10]): 3
- Sugarbeets plant response rating (sugar beet; [11]): 0
- Sugarbeets plant response rating (sugar beet; [15]): 2
- Rice plant response rating (rice; [1]): 0
- Rice plant response rating (rice; [12]): 0
- Rice plant response rating (rice; [21]): 0
- Rice plant response rating (rice; [14]): 0
- S. Flatsedge plant response rating (smallflower flatsedge; [1]): 0
- S. Flatsedge plant response rating (smallflower flatsedge; [12]): 0
- S. Flatsedge plant response rating (smallflower flatsedge; [21]): 0
- S. Flatsedge plant response rating (smallflower flatsedge; [14]): 0
- Ducksalad plant response rating (duck salad; [1]): 0
- Ducksalad plant response rating (duck salad; [12]): 0
- Ducksalad plant response rating (duck salad; [21]): 0
- Ducksalad plant response rating (duck salad; [14]): 0
- Barnyardgrass plant response rating (bamyardgrass; [1]): 0
- Barnyardgrass plant response rating (bamyardgrass; [12]): 0
- Barnyardgrass plant response rating (bamyardgrass; [21]): 0
- Barnyardgrass plant response rating (bamyardgrass; [14]): 0
